Data reported in PMC2651632 (Biochemistry, 2008).

Molecular target: T1, reconstituted ATase (ATN6-ATC3 complex) (Escherichia coli, UniProt P30870)
T1 sequence (P30870 1-608): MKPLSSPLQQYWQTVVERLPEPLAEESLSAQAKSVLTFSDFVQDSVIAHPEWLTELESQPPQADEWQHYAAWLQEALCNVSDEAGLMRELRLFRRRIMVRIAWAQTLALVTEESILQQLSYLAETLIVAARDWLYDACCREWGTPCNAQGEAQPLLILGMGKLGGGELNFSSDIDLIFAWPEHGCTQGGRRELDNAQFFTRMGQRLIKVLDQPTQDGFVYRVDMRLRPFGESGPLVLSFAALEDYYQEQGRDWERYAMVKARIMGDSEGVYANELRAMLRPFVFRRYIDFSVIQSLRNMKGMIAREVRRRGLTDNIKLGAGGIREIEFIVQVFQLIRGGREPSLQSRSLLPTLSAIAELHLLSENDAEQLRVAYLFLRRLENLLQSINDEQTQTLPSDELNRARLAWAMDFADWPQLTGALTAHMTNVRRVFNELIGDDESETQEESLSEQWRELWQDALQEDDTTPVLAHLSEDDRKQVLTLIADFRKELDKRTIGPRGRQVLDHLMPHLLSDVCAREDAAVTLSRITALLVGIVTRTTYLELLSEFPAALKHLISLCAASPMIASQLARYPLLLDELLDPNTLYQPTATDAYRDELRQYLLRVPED
T1 sequence (P30870 609-946 partner): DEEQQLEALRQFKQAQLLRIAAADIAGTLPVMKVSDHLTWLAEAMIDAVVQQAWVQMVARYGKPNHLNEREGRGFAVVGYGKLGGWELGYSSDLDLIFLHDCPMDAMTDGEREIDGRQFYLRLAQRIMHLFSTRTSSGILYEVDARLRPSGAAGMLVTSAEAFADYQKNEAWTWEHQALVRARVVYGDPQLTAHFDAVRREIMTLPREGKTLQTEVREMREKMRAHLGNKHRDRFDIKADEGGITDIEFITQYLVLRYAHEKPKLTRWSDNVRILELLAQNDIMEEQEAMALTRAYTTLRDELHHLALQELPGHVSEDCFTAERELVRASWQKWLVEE
Assay: initial rate of GS adenylylation, […] incorporation from [alpha-32P]ATP
Format: biochemical

EC50: ~7 mM
Compound: NC(=O)CC[C@H](N)C(=O)O [glutamine]
